{"source": "ChEMBL document CHEMBL5537122", "about": "“Design, synthesis, and biological evaluation of 4-(2-fluorophenoxy)-7-methoxyquinazoline derivatives as dual EGFR/c-Met inhibitors for the treatment of NSCLC” (Eur J Med Chem, 2024)", "key": {"A549 [1]": {"system": "A549", "assay": "Downregulation of phosphorylated c-Met protein expression human A549 cells overexpressing c-MET incubated for 24 hrs by Western blotting analysis", "assay_type": "functional, cell-based", "conditions": "dose 1-10 µM"}, "NCI-H1975 [2]": {"system": "NCI-H1975", "assay": "Inhibition of colony formation in human NCI-H1975 cells preincubated for 48 hrs followed by media replacement for every 2 days for 14 days by crystal violet staining based microscopic analysis", "assay_type": "functional, cell-based", "conditions": "dose 0.25-2 µM"}, "NCI-H1975 [3]": {"system": "NCI-H1975", "assay": "Antiproliferative activity against human NCI-H1975 cells overexpressing c-Met and EGFR assessed as reduction in cell viability incubated for 72 hrs by MTT assay", "assay_type": "functional, cell-based", "conditions": "NCI-H1975, 72 h"}, "A549 [4]": {"system": "A549", "assay": "Induction of apoptosis in human A549 cells overexpressing c-MET assessed as increase in green fluorescence intensity incubated for 24 hrs by JC-1 staining based fluorescence inverted microscopic analysis", "assay_type": "functional, cell-based", "conditions": "dose 1-2.5 µM"}, "A549 [5]": {"system": "A549", "assay": "Induction in apoptosis in human A549 cells overexpressing c-MET assessed as early apoptotic cells at 1 uM incubated for 24 hrs by Annexin V-FITC/Propidium Iodide staining based flow cytometry analysis (reference value: 7.27 %)", "assay_type": "functional"}, "A549 [6]": {"system": "A549", "assay": "Induction in apoptosis in human A549 cells overexpressing c-MET assessed as viable cells at 2.5 uM incubated for 24 hrs by Annexin V-FITC/Propidium Iodide staining based flow cytometry analysis (reference value: 81.92 %", "assay_type": "functional", "conditions": "read-out: Activity"}, "A549 [7]": {"system": "A549", "assay": "Induction in apoptosis in human A549 cells overexpressing c-MET assessed as late apoptotic cells at 2.5 uM incubated for 24 hrs by Annexin V-FITC/Propidium Iodide staining based flow cytometry analysis (reference value: 7.59 %)", "assay_type": "functional"}, "A549 [8]": {"system": "A549", "assay": "Induction in apoptosis in human A549 cells overexpressing c-MET assessed as necrotic cells at 2.5 uM incubated for 24 hrs by Annexin V-FITC/Propidium Iodide staining based flow cytometry analysis (reference value: 3.22 %)", "assay_type": "functional"}, "NCI-H1975 [9]": {"system": "NCI-H1975", "assay": "Induction in apoptosis in human NCI-H1975 cells assessed as necrotic cells at 1 uM incubated for 24 hrs by Annexin V-FITC/Propidium Iodide staining based flow cytometry analysis (reference value: 1.42 %)", "assay_type": "functional"}, "NCI-H1975 [10]": {"system": "NCI-H1975", "assay": "Induction in apoptosis in human NCI-H1975 cells assessed as viable cells at 2.5 uM incubated for 24 hrs by Annexin V-FITC/Propidium Iodide staining based flow cytometry analysis (reference value: 91.58 %)", "assay_type": "functional", "conditions": "read-out: Activity"}, "NCI-H1975 [11]": {"system": "NCI-H1975", "assay": "Induction in apoptosis in human NCI-H1975 cells assessed as early apoptotic cells at 2.5 uM incubated for 24 hrs by Annexin V-FITC/Propidium Iodide staining based flow cytometry analysis (reference value: 2.54 %)", "assay_type": "functional"}, "[12]": {"assay": "Induction in apoptosis in human L02 cells assessed as viable cells at 2.5 uM incubated for 24 hrs by Annexin V-FITC/Propidium Iodide staining based flow cytometry analysis (reference value: 92.75 %)", "assay_type": "toxicity, cell-based", "conditions": "read-out: Activity"}, "L02": {"system": "L02", "assay": "Induction in apoptosis in human L02 cells assessed as early apoptotic cells at 2.5 uM incubated for 24 hrs by Annexin V-FITC/Propidium Iodide staining based flow cytometry analysis (reference value: 0.26 %)", "assay_type": "toxicity, cell-based", "conditions": "l02, 24 h"}, "A549 [13]": {"system": "A549", "assay": "Induction of cell cycle arrest in human A549 cells overexpressing c-MET assessed as accumulation of cells at G1/G0 phase at 1 uM incubated for 24 hrs by RNase A/propidium iodide staining based flow cytometric analysis (reference value: 49.24 %)", "assay_type": "functional"}, "A549 [14]": {"system": "A549", "assay": "Induction of cell cycle arrest in human A549 cells overexpressing c-MET assessed as accumulation of cells at G1/G0 phase at 2.5 uM incubated for 24 hrs by RNase A/propidium iodide staining based flow cytometric analysis (reference value: 49.24 %)", "assay_type": "functional"}, "A549 [15]": {"system": "A549", "assay": "Induction of cell cycle arrest in human A549 cells overexpressing c-MET assessed as accumulation of cells at S phase at 2.5 uM incubated for 24 hrs by RNase A/propidium iodide staining based flow cytometric analysis (reference value: 37.87 %)", "assay_type": "functional"}, "A549 [16]": {"system": "A549", "assay": "Induction of cell cycle arrest in human A549 cells overexpressing c-MET assessed as accumulation of cells at G2/M phase at 2.5 uM incubated for 24 hrs by RNase A/propidium iodide staining based flow cytometric analysis (reference value: 12.41 %)", "assay_type": "functional"}, "A549 [17]": {"system": "A549", "assay": "Antimigratory activity against EGF-induced cell migration in serum starved human A549 cells overexpressing c-MET assessed as increase in width of artificial gap incubated for 24 hrs by wound healing assay", "assay_type": "functional, cell-based", "conditions": "dose 1-2.5 µM"}, "NCI-H1975 [18]": {"system": "NCI-H1975", "assay": "Antimigratory activity against EGF-induced cell migration in serum starved human NCI-H1975 cells assessed as increase in width of artificial gap incubated for 24 hrs by wound healing assay", "assay_type": "functional, cell-based", "conditions": "dose 1-2.5 µM"}, "PC-9": {"system": "PC-9", "assay": "Antimigratory activity against EGF-induced cell migration in serum starved human PC-9 cells assessed as increase in width of artificial gap incubated for 24 hrs by wound healing assay", "assay_type": "functional, cell-based", "conditions": "dose 1-2.5 µM"}, "[19]": {"system": "Epidermal growth factor receptor (Homo sapiens), P00533 [L858R]", "sequence (P00533 whole entry L858R)": "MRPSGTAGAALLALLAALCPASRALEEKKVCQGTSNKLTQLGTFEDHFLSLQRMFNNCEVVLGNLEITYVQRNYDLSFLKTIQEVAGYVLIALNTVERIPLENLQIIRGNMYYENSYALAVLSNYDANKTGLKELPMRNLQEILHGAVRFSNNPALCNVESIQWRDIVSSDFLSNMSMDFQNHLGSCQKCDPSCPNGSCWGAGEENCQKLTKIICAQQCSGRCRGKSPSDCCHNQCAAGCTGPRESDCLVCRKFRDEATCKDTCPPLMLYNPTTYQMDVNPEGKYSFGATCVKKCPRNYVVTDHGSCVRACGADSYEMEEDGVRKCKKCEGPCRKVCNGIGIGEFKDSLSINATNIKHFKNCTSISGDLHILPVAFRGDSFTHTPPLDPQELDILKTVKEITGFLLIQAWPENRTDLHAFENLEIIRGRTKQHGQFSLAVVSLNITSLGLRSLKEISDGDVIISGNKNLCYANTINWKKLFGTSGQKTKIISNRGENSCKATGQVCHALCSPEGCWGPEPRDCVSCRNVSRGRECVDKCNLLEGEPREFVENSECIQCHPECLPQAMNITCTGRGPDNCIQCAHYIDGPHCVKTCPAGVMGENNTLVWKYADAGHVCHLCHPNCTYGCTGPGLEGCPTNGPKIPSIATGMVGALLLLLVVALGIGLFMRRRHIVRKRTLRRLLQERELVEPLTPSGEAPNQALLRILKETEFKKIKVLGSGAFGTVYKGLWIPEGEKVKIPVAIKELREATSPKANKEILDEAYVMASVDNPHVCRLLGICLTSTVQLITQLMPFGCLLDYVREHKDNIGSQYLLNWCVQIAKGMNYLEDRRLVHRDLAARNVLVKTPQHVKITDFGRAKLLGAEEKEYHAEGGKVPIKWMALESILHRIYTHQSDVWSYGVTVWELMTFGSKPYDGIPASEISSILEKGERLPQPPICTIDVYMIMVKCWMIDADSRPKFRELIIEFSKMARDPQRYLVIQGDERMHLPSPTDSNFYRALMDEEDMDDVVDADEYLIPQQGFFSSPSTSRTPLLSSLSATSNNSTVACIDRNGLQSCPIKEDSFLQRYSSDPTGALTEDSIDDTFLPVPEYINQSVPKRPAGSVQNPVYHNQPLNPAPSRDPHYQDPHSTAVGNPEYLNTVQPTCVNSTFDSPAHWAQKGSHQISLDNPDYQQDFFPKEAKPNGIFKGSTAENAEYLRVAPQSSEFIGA", "assay": "Inhibition of EGFR L858R mutant (unknown origin) at 10 uM relative to control"}, "[20]": {"target": "Hepatocyte growth factor receptor (Homo sapiens, UniProt P08581)", "assay": "Inhibition of c-MET (unknown origin) at 10 uM relative to control"}, "[21]": {"target": "ALK tyrosine kinase receptor (Homo sapiens) (UniProt Q9UM73)", "sequence (Q9UM73 19-1620 limits assumed)": "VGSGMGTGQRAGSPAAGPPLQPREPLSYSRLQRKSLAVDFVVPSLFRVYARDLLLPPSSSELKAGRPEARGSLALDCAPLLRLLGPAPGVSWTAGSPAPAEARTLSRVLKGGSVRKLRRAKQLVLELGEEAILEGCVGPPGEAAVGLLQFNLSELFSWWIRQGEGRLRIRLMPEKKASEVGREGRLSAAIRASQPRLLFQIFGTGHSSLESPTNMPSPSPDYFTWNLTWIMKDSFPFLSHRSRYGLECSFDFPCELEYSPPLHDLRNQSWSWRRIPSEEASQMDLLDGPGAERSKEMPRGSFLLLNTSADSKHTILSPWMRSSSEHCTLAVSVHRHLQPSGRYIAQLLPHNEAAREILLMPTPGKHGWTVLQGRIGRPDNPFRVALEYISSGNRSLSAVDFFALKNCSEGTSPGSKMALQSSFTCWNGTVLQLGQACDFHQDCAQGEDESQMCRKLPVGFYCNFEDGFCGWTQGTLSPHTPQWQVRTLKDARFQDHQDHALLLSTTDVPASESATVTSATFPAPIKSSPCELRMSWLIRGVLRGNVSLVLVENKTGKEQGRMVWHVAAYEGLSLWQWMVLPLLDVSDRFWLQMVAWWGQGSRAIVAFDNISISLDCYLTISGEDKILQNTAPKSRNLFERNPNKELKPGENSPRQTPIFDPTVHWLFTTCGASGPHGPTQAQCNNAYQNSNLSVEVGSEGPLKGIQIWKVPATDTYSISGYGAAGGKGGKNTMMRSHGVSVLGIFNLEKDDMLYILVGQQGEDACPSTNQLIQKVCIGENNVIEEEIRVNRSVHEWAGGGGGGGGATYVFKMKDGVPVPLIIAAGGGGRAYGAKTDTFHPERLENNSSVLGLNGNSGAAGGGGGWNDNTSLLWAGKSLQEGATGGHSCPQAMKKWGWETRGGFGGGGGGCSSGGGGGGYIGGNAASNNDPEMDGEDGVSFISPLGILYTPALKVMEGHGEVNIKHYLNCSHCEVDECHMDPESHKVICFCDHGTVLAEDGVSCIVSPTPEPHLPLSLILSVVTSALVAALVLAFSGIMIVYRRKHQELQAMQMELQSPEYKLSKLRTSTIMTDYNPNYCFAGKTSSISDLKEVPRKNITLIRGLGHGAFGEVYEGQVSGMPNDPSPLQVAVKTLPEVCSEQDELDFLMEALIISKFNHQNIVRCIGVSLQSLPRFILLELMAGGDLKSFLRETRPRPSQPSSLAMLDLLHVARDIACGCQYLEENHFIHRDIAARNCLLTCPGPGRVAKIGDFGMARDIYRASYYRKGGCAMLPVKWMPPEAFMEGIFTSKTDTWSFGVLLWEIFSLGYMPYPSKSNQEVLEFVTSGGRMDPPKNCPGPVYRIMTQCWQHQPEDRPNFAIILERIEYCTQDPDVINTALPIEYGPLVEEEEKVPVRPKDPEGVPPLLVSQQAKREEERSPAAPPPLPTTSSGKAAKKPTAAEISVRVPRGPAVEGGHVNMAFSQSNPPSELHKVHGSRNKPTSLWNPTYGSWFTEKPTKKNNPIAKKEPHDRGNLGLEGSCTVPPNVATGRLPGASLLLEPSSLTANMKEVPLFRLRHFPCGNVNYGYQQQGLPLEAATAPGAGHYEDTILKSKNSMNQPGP", "assay": "Inhibition of ALK (unknown origin) at 10 uM"}, "[22]": {"target": "Insulin receptor (Homo sapiens) (UniProt P06213)", "sequence (P06213 28-758 limits assumed)": "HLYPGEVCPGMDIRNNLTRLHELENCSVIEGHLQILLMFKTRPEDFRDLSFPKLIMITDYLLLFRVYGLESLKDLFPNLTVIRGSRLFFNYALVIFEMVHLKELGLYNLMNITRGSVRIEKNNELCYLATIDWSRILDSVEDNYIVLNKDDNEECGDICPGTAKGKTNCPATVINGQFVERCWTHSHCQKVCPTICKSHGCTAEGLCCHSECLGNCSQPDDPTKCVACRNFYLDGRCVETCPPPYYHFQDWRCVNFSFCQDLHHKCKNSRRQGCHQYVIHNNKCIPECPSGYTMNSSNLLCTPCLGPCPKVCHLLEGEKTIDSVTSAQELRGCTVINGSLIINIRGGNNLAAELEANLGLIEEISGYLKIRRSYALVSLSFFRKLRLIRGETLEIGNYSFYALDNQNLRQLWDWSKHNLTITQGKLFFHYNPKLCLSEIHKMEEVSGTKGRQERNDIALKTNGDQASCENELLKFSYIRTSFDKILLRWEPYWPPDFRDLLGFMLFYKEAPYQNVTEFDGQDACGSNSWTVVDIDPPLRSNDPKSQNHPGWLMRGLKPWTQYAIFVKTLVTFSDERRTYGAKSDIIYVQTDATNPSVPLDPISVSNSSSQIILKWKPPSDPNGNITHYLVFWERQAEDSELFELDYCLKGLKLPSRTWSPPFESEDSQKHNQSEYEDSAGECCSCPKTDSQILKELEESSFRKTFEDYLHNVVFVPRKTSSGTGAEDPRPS", "sequence (P06213 763-1382 limits assumed)": "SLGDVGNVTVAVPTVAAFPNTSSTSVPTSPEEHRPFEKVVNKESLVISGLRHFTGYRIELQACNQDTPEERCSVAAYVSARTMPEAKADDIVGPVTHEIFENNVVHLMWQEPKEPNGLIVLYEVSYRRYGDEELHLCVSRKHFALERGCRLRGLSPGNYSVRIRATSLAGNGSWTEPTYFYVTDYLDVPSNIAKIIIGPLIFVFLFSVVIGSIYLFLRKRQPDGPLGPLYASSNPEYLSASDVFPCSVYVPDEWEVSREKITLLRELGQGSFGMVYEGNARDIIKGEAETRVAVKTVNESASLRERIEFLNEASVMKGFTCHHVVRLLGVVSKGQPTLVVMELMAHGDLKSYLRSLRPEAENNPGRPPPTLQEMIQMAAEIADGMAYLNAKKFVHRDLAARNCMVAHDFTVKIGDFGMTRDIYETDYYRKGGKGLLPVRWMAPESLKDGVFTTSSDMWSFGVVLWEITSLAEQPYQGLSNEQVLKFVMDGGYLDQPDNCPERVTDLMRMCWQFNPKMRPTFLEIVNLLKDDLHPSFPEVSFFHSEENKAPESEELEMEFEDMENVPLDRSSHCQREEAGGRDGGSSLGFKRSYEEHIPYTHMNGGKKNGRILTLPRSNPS", "assay": "Inhibition of INSR (unknown origin) at 10 uM"}, "[23]": {"target": "Fibroblast growth factor receptor 2 (Homo sapiens) (UniProt P21802)", "sequence (P21802 22-821 limits assumed)": "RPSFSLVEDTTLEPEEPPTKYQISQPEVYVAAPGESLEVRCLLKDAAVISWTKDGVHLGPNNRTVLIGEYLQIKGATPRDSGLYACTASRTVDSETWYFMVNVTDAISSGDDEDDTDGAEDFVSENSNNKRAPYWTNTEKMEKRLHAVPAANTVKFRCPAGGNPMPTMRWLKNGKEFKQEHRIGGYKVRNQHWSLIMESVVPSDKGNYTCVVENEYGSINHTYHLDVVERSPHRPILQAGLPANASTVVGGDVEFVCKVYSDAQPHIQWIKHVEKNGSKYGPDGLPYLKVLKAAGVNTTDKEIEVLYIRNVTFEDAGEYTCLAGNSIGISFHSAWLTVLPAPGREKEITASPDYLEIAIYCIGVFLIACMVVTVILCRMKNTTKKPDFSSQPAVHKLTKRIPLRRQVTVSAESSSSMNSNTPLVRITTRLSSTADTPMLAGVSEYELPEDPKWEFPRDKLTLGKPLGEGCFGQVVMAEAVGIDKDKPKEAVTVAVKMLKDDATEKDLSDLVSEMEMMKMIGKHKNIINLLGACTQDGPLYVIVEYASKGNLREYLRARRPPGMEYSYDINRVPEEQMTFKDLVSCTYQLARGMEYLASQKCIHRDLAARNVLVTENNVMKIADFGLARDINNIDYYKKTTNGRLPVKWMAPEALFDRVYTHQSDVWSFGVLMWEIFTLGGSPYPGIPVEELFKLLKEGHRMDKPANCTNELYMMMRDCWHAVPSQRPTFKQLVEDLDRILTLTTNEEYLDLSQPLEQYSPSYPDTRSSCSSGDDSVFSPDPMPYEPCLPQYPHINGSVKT", "assay": "Inhibition of FGFR2 (unknown origin) at 10 uM"}, "[24]": {"assay": "Nephrotoxicity in KM mouse assessed as effect on urea level at 100 mg/kg, IG qd administered for 7 days by automatic biochemical analyzer", "assay_type": "toxicity, organism-based", "conditions": "in vivo, po, 168 h, time 7 day"}, "[25]": {"assay": "Acute toxicity in KM mouse assessed as effect on total protein level at 100 mg/kg, IG qd administered for 7 days by automatic biochemical analyzer", "assay_type": "organism-based", "conditions": "in vivo, po, 168 h, time 7 day"}, "[26]": {"assay": "Acute toxicity in KM mouse assessed as effect on glucose level at 100 mg/kg, IG qd administered for 7 days by automatic biochemical analyzer", "assay_type": "organism-based", "conditions": "in vivo, po, 168 h, time 7 day"}, "[27]": {"assay": "Acute toxicity in KM mouse assessed as cell damage or necrosis in liver at 100 mg/kg, IG qa administered for 7 days and measured on day 8 by hematoxylin and eosin staining based assay", "assay_type": "organism-based", "conditions": "in vivo, po, 192 h, time 8 day"}, "A549 [28]": {"system": "A549", "assay": "Antitumor activity against human A549 cells overexpressing c-MET xenografted in BALB/c nude mouse assessed as tumor growth inhibition at 40 mg/kg, IG qod measured for 24 days relative to control", "assay_type": "functional", "conditions": "A549, po, 576 h, time 24 day, read-out: TGI"}, "[29]": {"assay": "Toxicity in BALB/c nude mouse xenografted with human A549 cells overexpressing c-MET assessed as change in body weight at 40 to 60 mg/kg, IG and measured for 24 days", "assay_type": "organism-based", "conditions": "in vivo, po, 576 h, dose 40-60 mg/kg, time 24 day"}, "NCI-H1975 [30]": {"system": "NCI-H1975", "assay": "Inhibition of colony formation in human NCI-H1975 cells at 2 uM preincubated for 48 hrs followed by media replacement for every 2 days for 14 days by crystal violet staining based microscopic analysis relative to control", "assay_type": "functional"}}, "note": "Calls of active or inactive are those of the source. The rule behind the calls is not given here."}
{"smiles": "C=CC(=O)Nc1cc2c(Oc3ccc(NC(=O)n4c(=O)c(-c5ccccc5)c(C)n4C)cc3F)cccc2cc1OC", "values": [{"measurement": "Activity", "setting": "A549 [1]", "value": "Dose-Dependent Effect"}, {"measurement": "inhibition", "setting": "NCI-H1975 [2]", "value": "Dose-Dependent Effect"}, {"measurement": "IC50", "setting": "NCI-H1975 [3]", "value": 1130, "unit": "nM"}, {"measurement": "Activity", "setting": "A549 [4]", "value": "Dose-Dependent Effect"}, {"measurement": "Activity", "setting": "A549 [5]", "value": 10.4, "unit": "%"}, {"measurement": "viability at 2.5 µM", "setting": "A549 [6]", "value": 60.1, "unit": "%"}, {"measurement": "Activity", "setting": "A549 [7]", "value": 22.82, "unit": "%"}, {"measurement": "Activity", "setting": "A549 [8]", "value": 6.65, "unit": "%"}, {"measurement": "Activity", "setting": "NCI-H1975 [9]", "value": 1.74, "unit": "%"}, {"measurement": "viability at 2.5 µM", "setting": "NCI-H1975 [10]", "value": 85.5, "unit": "%"}, {"measurement": "Activity", "setting": "NCI-H1975 [11]", "value": 3.87, "unit": "%"}, {"measurement": "viability at 24 h, 2.5 µM", "setting": "[12]", "value": 95, "unit": "%"}, {"measurement": "Activity", "setting": "L02", "value": 0.13, "unit": "%"}, {"measurement": "Activity", "setting": "A549 [13]", "value": 53.03, "unit": "%"}, {"measurement": "Activity", "setting": "A549 [14]", "value": 57.29, "unit": "%"}, {"measurement": "Activity", "setting": "A549 [15]", "value": 31.41, "unit": "%"}, {"measurement": "Activity", "setting": "A549 [16]", "value": 10.98, "unit": "%"}, {"measurement": "Activity", "setting": "A549 [17]", "value": "Dose-Dependent Effect"}, {"measurement": "Activity", "setting": "NCI-H1975 [18]", "value": "Dose-Dependent Effect"}, {"measurement": "Activity", "setting": "PC-9", "value": "Dose-Dependent Effect"}, {"measurement": "inhibition", "setting": "[19]", "value": "> 90", "unit": "%"}, {"measurement": "inhibition", "setting": "[20]", "value": "> 90", "unit": "%"}, {"measurement": "inhibition", "setting": "[21]", "value": "inactive"}, {"measurement": "inhibition", "setting": "[22]", "value": "inactive"}, {"measurement": "inhibition", "setting": "[23]", "value": "inactive"}, {"measurement": "Activity", "setting": "[24]", "value": "Non-Toxic"}, {"measurement": "Activity", "setting": "[25]", "value": "Non-Toxic"}, {"measurement": "Activity", "setting": "[26]", "value": "Non-Toxic"}, {"measurement": "Activity", "setting": "[27]", "value": "Non-Toxic"}, {"measurement": "inhibition in vivo at 40 mg/kg", "setting": "A549 [28]", "value": 25, "unit": "%"}, {"measurement": "Activity", "setting": "[29]", "value": "Non-Toxic"}, {"measurement": "inhibition at 2 µM", "setting": "NCI-H1975 [30]", "value": "~100", "unit": "%"}]}
